According to publication PMC9312958, “A Novel and Selective Dopamine Transporter Inhibitor, (S)-MK-26, Promotes Hippocampal Synaptic Plasticity and Restores Effort-Related Motivational Dysfunctions” (Biomolecules, 2022):

Tested on: CA3-CA1 hippocampal synapses
Assay: Ex vivo hippocampal slice electrophysiology after i.p. treatment
Type: in vivo, rat
Details: 10 mg/kg i.p.
Experimental: All electrophysiological experiments were conducted post mortem. Hippocampal slices (n = 12 animals/group) were prepared 1 h after the pharmacological treatments (animal experiments conducted under BMBWF-66.009/235/V/3b/2018 regulations). Animals underwent a brief sedative exposure to low CO2 inhalation and were immediately afterwards euthanized using a sharp-blade guillotining (DCAP-M, World Precision Instruments, Inc., Sarasota, FL, USA). The brains were removed and transferred to an ice-cold artificial Cerebrospinal Fluid (aCSF) solution containing (in mM): 125 NaCl, 2.5 KCl, 20 NaHCO3, 2.5 CaCl2, 1 MgCl2, 25 D-glucose, 1 NaH2PO4 (pH 7.4). Hippocampi were extracted and cut transversally with a tissue chopper (McIlwain TC752, Campden Instruments LTD., Loughborough, England) to obtain 400 µm-thick slices. Before electrophysiological assays, the slices rested for at least 1 h in a submerged recovery chamber (filled with aCSF) placed in a water bath with the temperature set at 30 °C. […]
Slice recordings were carried out in a submerged chamber receiving 3–4 mL/min of carbogenated aCSF (30 ± 2 °C). Field excitatory postsynaptic potentials (fEPSPs) were recorded using glass pipettes made of pulled capillary-glass obtained from Harvard Apparatus (Harvard Apparatus, GmbH; Hugo Sachs Elektronik, Germany). Evoked fEPSPs were recorded at the CA1 stratum-radiatum layer after electrically stimulating the collateral projections of Schaffer coming from the CA3 region as previously reported. […] Basal synaptic transmission was assessed by the generation of input/output (I/O) curves, resulting from the plotting of the field slope values (output; normalized to maximum) against the presented electrical stimulus intensity (input voltage). […] LTP was determined from the temporal progression of the fEPSP slope values (decaying phase) after LTP induction, normalized to the averaged slope values obtained before LTP-induction (base line values). The data for LTP from all slices were averaged for each animal (2–5 slices per rat were measured and averaged to yield one single value per animal). […]

## [O-][S@@+](Cc1cncs1)C(c1cccc(Cl)c1)c1cccc(Cl)c1 [(S)-MK-26, (S)-5-(((B(3-chlorophenyl)methyl)sulphinyl)methyl)thiazole]
Old rats (~20 months), slices 1 h after injection
  basal synaptic transmission (I/O curves, fEPSP slopes): no effects
Old rats
  Post-Tetanic Potentiation (1 min after LTP induction): comparable to those from the Koliphor/control group
Old rats, p = 0.0133
  LTP responses (25 min after LTP induction): significant enhancement in their LTP responses
